This is an account of results in ChEMBL document CHEMBL3638781, “Inhibitors of Œ=-secretase” (2015).

Molecules are shown by their SMILES.

In the experiment the target is Beta-secretase 1 (Homo sapiens, UniProt P56817). As to the kind of experiment: Fluorescence Quench Assay: The inhibitory activity of compounds was assessed by a fluorescence quench assay of BACE1 activity using commercially available substrate HiLyte Fluor 488-[…](QXLT 520)-OH (SEQ ID NO:1) AnaSpec, San Jose, Calif.) and truncated human beta-secretase, BACE1 (amino acids 1-454) fused to a myc-his tag and secreted from HEK293/BACEect. cells into OptiMEM (Invitrogen). The substrate was dissolved at 1 mg/ml in DMSO.The assay was performed in the presence of OptiMEM (supernatant collected over 24 h and cleared from cellular debris by centrifugation) containing the ectodomain of BACE1, 25 ul water containing the desired 2-fold concentration of test compound and 2% DMSO, 1 uM substrate peptide, 20 mM NaOAc, pH 4.4, and 0.04% Triton-X100 in a total assay volume of 50 ul in a 384 well plate. In general, 25 ul of compound dilution were given to the plate followed by the addition of 10 ul of BACE1 containing OptiMEM diluted 1:10 in water.
Sequence of Beta-secretase 1 (P56817 whole entry, the tested form may be a part): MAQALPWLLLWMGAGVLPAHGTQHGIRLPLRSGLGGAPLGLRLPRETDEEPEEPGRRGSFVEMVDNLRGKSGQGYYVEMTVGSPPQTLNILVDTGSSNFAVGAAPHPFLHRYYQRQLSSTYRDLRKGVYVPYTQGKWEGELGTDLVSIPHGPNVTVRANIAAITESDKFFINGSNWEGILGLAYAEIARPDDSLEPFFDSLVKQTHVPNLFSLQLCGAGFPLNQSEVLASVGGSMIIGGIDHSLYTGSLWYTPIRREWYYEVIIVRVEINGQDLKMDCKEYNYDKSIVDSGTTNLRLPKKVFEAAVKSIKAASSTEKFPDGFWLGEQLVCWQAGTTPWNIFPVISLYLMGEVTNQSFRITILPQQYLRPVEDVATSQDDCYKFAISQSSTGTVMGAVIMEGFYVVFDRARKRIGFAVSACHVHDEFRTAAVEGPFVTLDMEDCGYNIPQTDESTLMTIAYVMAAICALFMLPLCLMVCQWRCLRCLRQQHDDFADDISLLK

Consider `CO[C@H]1CC[C@@]2(Cc3ccc(C#N)cc3[C@]23N=C(N)N(Cc2ncccn2)C3=O)C[C@@H]1C`, for which the IC50 amounted to 11 nM.

Usually IC50 stands for the concentration that gives 50% inhibition.
